Among the data in patent US7375226B2, “Bi- and tricyclic substituted phenyl methanones” (Hoffman-La Roche Inc., priority 2004, dated 2008) are IC50 values, retold here.

The assay concerns the target T1, mGlyT-1b (Mus musculus, UniProt P28571).
T1 construct: host or cells: Flp-in-CHO
T1 sequence (P28571 1-651 isoform P28571-2): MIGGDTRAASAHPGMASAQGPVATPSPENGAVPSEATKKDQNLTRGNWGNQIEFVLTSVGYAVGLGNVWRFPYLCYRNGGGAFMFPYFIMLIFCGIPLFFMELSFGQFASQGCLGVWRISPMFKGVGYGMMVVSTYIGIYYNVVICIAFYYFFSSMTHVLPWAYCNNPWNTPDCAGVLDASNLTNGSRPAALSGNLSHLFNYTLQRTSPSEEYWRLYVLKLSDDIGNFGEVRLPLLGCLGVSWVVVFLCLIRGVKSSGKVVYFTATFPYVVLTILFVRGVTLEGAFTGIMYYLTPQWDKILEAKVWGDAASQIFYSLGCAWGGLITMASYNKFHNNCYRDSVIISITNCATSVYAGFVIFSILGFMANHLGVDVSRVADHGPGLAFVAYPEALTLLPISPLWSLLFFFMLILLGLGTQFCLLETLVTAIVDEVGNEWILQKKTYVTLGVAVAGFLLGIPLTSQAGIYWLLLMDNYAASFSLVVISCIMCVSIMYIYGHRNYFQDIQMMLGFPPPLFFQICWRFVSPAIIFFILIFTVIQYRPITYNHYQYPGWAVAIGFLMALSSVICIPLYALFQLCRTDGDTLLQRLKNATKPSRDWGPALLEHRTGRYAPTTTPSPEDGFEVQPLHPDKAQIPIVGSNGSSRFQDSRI
Briefly: Glycine uptake inhibition assay (mGlyT-1b), [3H]-glycine uptake in Flp-in-CHO cells. The assay is classed as cell-based. As to conditions: Flp-in-CHO cells stably transfected with mGlyT1b cDNA; [3H]-glycine 60 nM and 25 μM non-radioactive glycine; read-out: IC50 (μM) at GlyT-1. The procedure: • DMEM complete medium: Nutrient mixture F-12 (Gibco Life-technologies), fetal bovine serum (FBS) 5%, (Gibco life technologies), Penicillin/Streptomycin 1% (Gibco life technologies), Hygromycin 0.6 mg/ml (Gibco life technologies), Glutamine 1 mM Gibco life technologies). • Uptake buffer (UB): 150 mM NaCl, 10 mM Hepes-Tris, pH 7.4, 1 mM CaCl2, 2.5 mM KCl, 2.5 mM MgSO4, 10 mM (+) D-glucose. • Flp-in™-CHO (Invitrogen Cat n° R758-07)cells stably transfected with mGlyT1b cDNA. • Glycine uptake inhibition assay (mGlyT-1b)
On day 1 mammalian cells, (Flp-in™-CHO), transfected with mGlyT-1b cDNA, were plated at the density of 40,000 cells/well in complete F-12 medium, without hygromycin in 96-well culture plates. On day 2, the medium was aspirated and the cells were washed twice with uptake buffer (UB). The cells were then incubated for 20 min at 22° C. with either (i) no potential competitor, (ii) 10 mM non-radioactive glycine, (iii) a concentration of a potential inhibitor. A range of concentration of the potential inhibitor was used to generate data for calculating the concentration of inhibitor resulting in 50% of the effect (e.g. IC50, the concentration of the competitor inhibiting glycine uptake of 50%). A solution was then immediately added containing [^3H]-glycine 60 nM (11-16 Ci/mmol) and 25 μM non-radioactive glycine. The plates were incubated with gentle shaking and the reaction was stopped by aspiration of the mixture and washing (three times) with ice-cold UB. The cells were lysed with scintillation liquid, shaken 3 hours and the radioactivity in the cells was counted using a scintillation counter.

`CS(=O)(=O)c1ccc(OCC2CC2)c(C(=O)N2CCc3c(sc4ccc(Cl)cc34)C2)c1` [Example 20, (6-Chloro-3,4-dihydro-1H-benzo[4,5]thieno[2,3-c]pyridin-2-yl)-(2-cyclopropylmethoxy-5-methanesulfonyl-phenyl)-methanone]: the IC50 was 0.026 µM.
For the compound `CC(C)Oc1ccc(S(C)(=O)=O)cc1C(=O)N1CCc2nc(-c3cccs3)sc2C1` [Example 6, (2-Isopropoxy-5-methanesulfonyl-phenyl)-(2-thiophen-2-yl-6,7-dihydro-4H!-thiazolo[5,4-c]pyridin-5-yl)-methanone], the half-maximal inhibitory concentration (IC50) amounted to 0.407 µM.
To `CC(C)COc1ccc(S(C)(=O)=O)cc1C(=O)N1CCc2nc(-c3cccs3)sc2C1` [Example 5, (2-Isobutoxy-5-methanesulfonyl-phenyl)-(2-thiophen-2-yl-6,7-dihydro-4H-thiazolo[5,4-c]pyridin-5-yl)-methanone] belongs 0.098 µM.
To `CC(C)COc1ccc(S(C)(=O)=O)cc1C(=O)N1CCc2nc(-c3ccc(C(F)(F)F)cc3)sc2C1` [Example 23, (2-Isobutoxy-5-methanesulfonyl-phenyl)-[2-(4-trifluoromethyl-phenyl)-6,7-dihydro-4H-thiazolo[5,4-c]pyridin-5-yl]-methanone] belongs 0.341 µM; to `CS(=O)(=O)c1ccc(OC2CCCC2)c(C(=O)N2CCn3c(nc4ccccc43)C2)c1` [Example 15, (2-Cyclopentyloxy-5-methanesulfonyl-phenyl)-(3,4-dihydro-1H-benzo[4,5]imidazo[1,2-a]pyrazin-2-yl)-methanone], 0.367 µM; to `CS(=O)(=O)c1ccc(N2CCOCC2)c(C(=O)N2CCc3c(sc4ccc(Cl)cc34)C2)c1` [Example 2, (6-Chloro-3,4-dihydro-1H-benzo[4,5]thieno[2,3-c]pyridin-2-yl)-(5-methanesulfonyl-2-morpholin-4-yl-phenyl)-methanone], 0.187 µM.
Then `CC(C)Oc1ccc(C#N)cc1C(=O)N1CCc2c(sc3ccc(Cl)cc23)C1` [Example 19, 3-(6-Chloro-3,4-dihydro-1H-benzo[4,5]thieno[2,3-c]pyridine-2-carbonyl)-4-isopropoxy-benzonitrile], with 0.339 µM.
As for `CC(C)Oc1ccc(S(C)(=O)=O)cc1C(=O)N1CCn2c(cc3ccc(Cl)cc32)C1` [Example 9, (7-Chloro-3,4-dihydro-1H-pyrazino[1,2-a]indol-2-yl)-(2-isopropoxy-5-methanesulfonyl-phenyl)-methanone], the IC50 turned out to be 0.134 µM.
With `CC(C)Oc1ccc(S(C)(=O)=O)cc1C(=O)N1CCn2c(cc3cc(OC(F)(F)F)ccc32)C1` [Example 11, (2-Isopropoxy-5-methanesulfonyl-phenyl)-(8-trifluoromethoxy-3,4-dihydro-1H-pyrazino[1,2-a]indol-2-yl)-methanone], the concentration for half-maximal inhibition (IC50) was 0.088 µM.
To `C[C@H](Oc1ccc(S(C)(=O)=O)cc1C(=O)N1CCc2c(sc3ccc(Cl)cc23)C1)C(F)(F)F` [Example 22, (6-Chloro-3,4-dihydro-1H-benzo[4,5]thieno[2,3-c]pyridin-2-yl)-[5-methanesulfonyl-2-((S)-2,2,2-trifluoro-1-methyl-ethoxy)-phenyl]-methanone] belongs 0.023 µM; to `CC(C)Oc1ccc(S(C)(=O)=O)cc1C(=O)N1CCc2c(sc3ccc(Cl)cc23)C1` [Example 1, (6-Chloro-3,4-dihydro-1H-benzo[4,5]thieno[2,3-c]pyridin-2-yl)-(2-isopropoxy-5-methanesulfonyl-phenyl)-methanone], 0.019 µM; to `CC(C)Oc1ccc(S(C)(=O)=O)cc1C(=O)N1CCN2c3ccc(OC(F)(F)F)cc3CC2C1` (racemic) [Example 14, Rac-(2-Isopropoxy-5-methanesulfonyl-phenyl)-(8-trifluoromethoxy-3,4,10,10a-tetrahydro-1H-pyrazino[1,2-a]indol-2-yl)-methanone], 0.154 µM.
